Measurements taken from paper PMC11249626, “Fluorophore-Labeled Pyrrolones Targeting the Intracellular Allosteric Binding Site of the Chemokine Receptor CCR1” (ACS Pharmacology & Translational Science, 2024).
Like-named read-outs stand apart in the source and are kept apart here.

Columns and labels:
CCR1 = target: T1, CCR1 (Homo sapiens, UniProt P32246); assay: Live cell NanoBRET binding assay, HEK293T cells expressing CCR1_Nluc; design: Promega pNLF1-C (Nluc) #CCR010TN00; host or cells: HEK293T, transient (PEI); conditions: for Ki: 12 (1000 nM), live HEK293T cells
T1 sequence (P32246 1-355): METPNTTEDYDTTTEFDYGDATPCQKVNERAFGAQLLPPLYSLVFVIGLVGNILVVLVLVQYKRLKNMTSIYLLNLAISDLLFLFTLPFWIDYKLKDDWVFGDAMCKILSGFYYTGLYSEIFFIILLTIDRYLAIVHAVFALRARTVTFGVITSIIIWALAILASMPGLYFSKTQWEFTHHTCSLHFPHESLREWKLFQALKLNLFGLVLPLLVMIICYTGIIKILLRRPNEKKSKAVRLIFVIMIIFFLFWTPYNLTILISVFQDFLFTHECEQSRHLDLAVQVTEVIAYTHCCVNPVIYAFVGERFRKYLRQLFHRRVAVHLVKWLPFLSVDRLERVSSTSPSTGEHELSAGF

CCR2 = target: T2, CCR2 (Homo sapiens, UniProt P41597); assay: NanoBRET competition binding assay for CCR2 based on 7, as previously reported; conditions: for inhibition at 20 µM: compound at 20 μM
T2 construct: host or cells: HEK293T, transient
T2 sequence (P41597 1-360 isoform P41597-2): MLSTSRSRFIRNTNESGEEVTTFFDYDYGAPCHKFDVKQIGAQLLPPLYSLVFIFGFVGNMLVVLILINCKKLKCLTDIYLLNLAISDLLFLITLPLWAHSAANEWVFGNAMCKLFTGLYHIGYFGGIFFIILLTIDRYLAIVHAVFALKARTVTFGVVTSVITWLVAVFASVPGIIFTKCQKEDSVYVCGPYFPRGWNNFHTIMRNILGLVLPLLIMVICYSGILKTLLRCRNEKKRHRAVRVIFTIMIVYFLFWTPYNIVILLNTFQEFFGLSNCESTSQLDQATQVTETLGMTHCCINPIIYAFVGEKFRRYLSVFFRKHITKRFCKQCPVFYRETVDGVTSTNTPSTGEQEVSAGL
Text: With 6 (Figure 1), a first lead structure for intracellular CCR1 inhibition that features an approximately 20-fold CCR1 over CCR2 selectivity was previously discovered by Ortiz Zacarías et al.([33]) In order to discover new chemotypes for selective CCR1 over CCR2 inhibition, we aimed to apply our novel NanoBRET competition binding assay for CCR1 in combination with our recently published CCR2 competition binding assay based on 7.[47] In our first attempt, we screened a small in-house library enriched with intracellular GPCR ligands and structural analogues thereof. […] Additionally, we tested 23 for binding to the IABS of CCR9 and CXCR2 using our recently reported NanoBRET-based assay platform (Figure 6C).[44],[45] In the course of these studies, we detected no binding of 23 to CCR9 and CXCR2 up to a concentration of 20 μM. Since cell lineage-dependent effects have been observed for CCR1 antagonists,[59] we studied the CCR1 over CCR2 selectivity of 23 by using a previously reported radioligand binding assay with membrane preparations from osteosarcoma (U2OS) cells stably expressing human CCR1 or CCR2.[33] […] In agreement with these previous reports,[33] we observed a reduction in CCR1 over CCR2 selectivity when moving from membrane-based binding assays to cell-based functional assays. […] To investigate a potential signaling bias of 23, we tested the compound by means of a NanoBiT miniGi recruitment assay.[60] […] Thus, this indicated no strong signaling bias of 23 (Figures S9E and S10C). To elucidate the SAR of this new scaffold for selective CCR1 over CCR2 inhibition, we synthesized several analogues of 23 (24–40) and tested them by means of our NanoBRET competition binding assays (Schemes S2 and S3, Table 1, Figures 6F and S11). First, we aimed to examine the impact of the stereochemistry of 23 on CCR1 affinity. As for the structurally related pyrrolone 4, large differences in CCR2 affinity between the eutomer 4-[R] and the distomer 4-[S] were described.[61] […] Furthermore, we identified the 4-hydroxyphenethyl group at position 1 of the pyrrolone scaffold as highly important for CCR1 affinity and selectivity. Its presence seems to block CCR2 binding, also when combined with the structural features of the high-affinity CCR2 ligand 5, as exemplified by 24. Especially the 4-hydroxy group at this moiety is essential for CCR1 binding (see 25 and 26). […] In position 5 of the pyrrolone, several aromatic and aliphatic substituents were tolerated (see 31–35).

Row | Ki (CCR1; read-out: Ki, live cells) [µM] | Ki (CCR1; read-out: pKi ± SEM, live cells (converted)) [µM] | inhibition at 20 µM (CCR2; read-out: % inh. of tracer binding, CCR2) [%] | inhibition at 20 µM (CCR2; read-out: CCR2 inhibition class (n.i.)) [%] | Ki (CCR2; NanoBRET competition, tracer 7) [µM] | Kd (CCR1; live HEK293T cells expressing CCR1_Nluc) [µM] | SMILES
1 | 0.235 | 0.229 | -3 | < 10 | – | – | O=C(C1=C(O)C(=O)N(CCc2ccc(O)cc2)C1c1ccc(F)cc1)c1ccccc1 (racemic) [compound 23]
2 | 0.0242 | – | – | – | 0.0179 | – | CC(=O)C1=C(O)C(=O)N(c2ccc(Br)cc2F)C1C1CCCCC1 (stereo not shown) [compound 5, reference compound]
3 | – | – | – | – | – | 0.505 ± 0.093 | CN(C)c1ccc2c(-c3cc(C(=O)NCCOCCOCc4cn(CCCC(=O)C5=C(O)C(=O)N(c6ccc(Br)cc6F)C5C5CCCCC5)nn4)ccc3C(=O)[O-])c3ccc(=[N+](C)C)cc-3oc2c1 (stereo not shown) [compound 12]
